Measurements published in US7550469B2, “Heterocyclic amide derivatives and their use as dopamine D3 receptor ligands” (Aventis Pharmaceuticals Inc., priority 2001, dated 2009).

biological target: T1, cloned human dopamine D3 receptors (Homo sapiens, UniProt P35462); assay: [N-Methyl-3H]Spiroperidol binding to cloned human dopamine D3 receptors (Protocol 1); conditions: D3 Ki (nM), the 25th table
T1 construct: expressed in transfected cells; membrane homogenate
Method in brief: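 Membranes from CHO cells stably expressing cloned human D3 receptor were used for [N-methyl-3H]spiroperidol (60-90 Ci/mmol) binding. Assay buffer was 0.05 M Tris HCl pH 7.7 with 120 mM NaCl, 5 mM KCl, 2 mM CaCl2 and 1 mM MgCl2, optionally 0.1% ascorbic acid; total ligand concentration calculated from added CPM.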

T1 sequence (P35462 whole entry): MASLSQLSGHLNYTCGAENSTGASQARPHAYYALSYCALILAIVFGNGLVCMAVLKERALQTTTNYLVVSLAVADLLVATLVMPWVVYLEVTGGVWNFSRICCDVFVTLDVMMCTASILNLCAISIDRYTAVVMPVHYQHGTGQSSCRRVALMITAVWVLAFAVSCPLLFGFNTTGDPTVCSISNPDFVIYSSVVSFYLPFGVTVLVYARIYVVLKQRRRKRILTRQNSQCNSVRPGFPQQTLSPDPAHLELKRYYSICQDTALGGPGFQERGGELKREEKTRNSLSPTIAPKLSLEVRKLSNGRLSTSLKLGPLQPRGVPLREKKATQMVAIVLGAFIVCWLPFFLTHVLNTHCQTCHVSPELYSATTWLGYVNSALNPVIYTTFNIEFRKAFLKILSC

Compound	Ki [nM]
COc1ccc(OC(=O)NCC2CC2CN2CCC(c3noc4ccsc34)CC2)cc1 (centres unmarked) [compound 831671]	96.4
O=C(NCC1CC1CN1CCC(c2noc3ccsc23)CC1)Oc1ccc(F)cc1 (centres unmarked) [compound 831697]	8.35
Cc1ccc(OC(=O)NCC2CC2CN2CCC(c3noc4ccsc34)CC2)cc1 (centres unmarked) [compound 831698]	29.4
O=C(NCC1CC1CN1CCC(c2noc3ccsc23)CC1)Oc1ccccc1 (centres unmarked) [compound 831699]	3.04

same assay, conditions: Table 2; read-out: D3K1

Compound	Ki [nM]
COc1ccc(C(=O)NC/C=C\CN2CCN(c3csc4cc(C(F)(F)F)ccc34)CC2)cc1 [compound 827734]	37.3
COc1ccc(/C=C/C(=O)NC/C=C\CN2CCN(c3csc4cc(C(F)(F)F)ccc34)CC2)cc1 [compound 827735]	24.4
CC(=O)C1CC(CC(=O)NC/C=C\CN2CCN(c3csc4cc(C(F)(F)F)ccc34)CC2)C1(C)C (centres unmarked) [compound 827737]	108
COc1ccc(C(=O)NC/C=C/CN2CCN(c3csc4cc(C(F)(F)F)ccc34)CC2)cc1 [compound 827738]	22.6
COc1ccc(/C=C/C(=O)NC/C=C/CN2CCN(c3csc4cc(C(F)(F)F)ccc34)CC2)cc1 [compound 827739]	22.4
CC(=O)C1CC(CC(=O)NC/C=C/CN2CCN(c3csc4cc(C(F)(F)F)ccc34)CC2)C1(C)C (centres unmarked) [compound 827741]	246

Now from value to compound:

Ki [nM]	Compound
173	O=C(NC/C=C\CN1CCN(c2csc3cc(C(F)(F)F)ccc23)CC1)C1(c2ccccc2)CC1 [compound 827736]
397	O=C(NC/C=C/CN1CCN(c2csc3cc(C(F)(F)F)ccc23)CC1)C1(c2ccccc2)CC1 [compound 827740]
21.3	O=C(NC/C=C/CN1CCN(c2csc3cc(C(F)(F)F)ccc23)CC1)c1cc2ccccc2[nH]1 [compound 827742]

same assay, conditions: read-out: D3K1

Compound	Ki [nM]
O=C(NC/C=C/CN1CCN(c2csc3cc(C(F)(F)F)ccc23)CC1)C1CCCCC1 [compound 827717]	9.5
O=C(NC/C=C/CN1CCN(c2csc3cc(C(F)(F)F)ccc23)CC1)c1ccc(F)cc1 [compound 827719]	51
N#Cc1cccc(C(=O)NC/C=C/CN2CCN(c3csc4cc(C(F)(F)F)ccc34)CC2)c1 [compound 827721]	91
COc1cccc(C(=O)NC/C=C/CN2CCN(c3csc4cc(C(F)(F)F)ccc34)CC2)c1 [compound 827722]	59
O=C(NC/C=C/CN1CCN(c2csc3cc(C(F)(F)F)ccc23)CC1)c1cccc(C(F)(F)F)c1 [compound 827724]	120
O=C(NC/C=C/CN1CCN(c2csc3cc(C(F)(F)F)ccc23)CC1)c1ccc(OC(F)(F)F)cc1 [compound 827726]	92

Continued, values first:

Ki [nM]	Compound
150	O=C(NC/C=C/CN1CCN(c2csc3cc(C(F)(F)F)ccc23)CC1)c1cccc(Cl)c1 [compound 827718]
86	O=C(NC/C=C/CN1CCN(c2csc3cc(C(F)(F)F)ccc23)CC1)c1cccc(F)c1 [compound 827720]
120	O=C(COc1ccccc1)NC/C=C/CN1CCN(c2csc3cc(C(F)(F)F)ccc23)CC1 [compound 827725]
16	O=C(NC/C=C/CN1CCN(c2csc3cc(C(F)(F)F)ccc23)CC1)c1cc2ccccc2s1 [compound 827728]
2.7	O=C(NCCCCCCN1CCN(c2csc3cc(C(F)(F)F)ccc23)CC1)c1cccc(F)c1 [compound 827730]

same assay, conditions: the 14th table; read-out: D3 Ki

Ki [nM]	Compound
2.7	O=C(NCCCCCCN1CCN(c2csc3cc(C(F)(F)F)ccc23)CC1)c1cccc(F)c1 [compound 827730]

same assay, conditions: the 17th table; read-out: D3 Ki

Ki [nM]	Compound
3.21	O=C(Cc1ccccc1)NC[C@@H]1CC1CN1CCCN(c2csc3cc(F)ccc23)CC1 (some centres unmarked) [compound 831203]
5.05	O=C(Cc1ccccc1)NC[C@@H]1CC1CN1CCCN(c2csc3cc(F)ccc23)CC1 (some centres unmarked) [compound 831204]

same assay, conditions: the 22nd table; read-out: D3 Ki

Ki [nM]	Compound
515	O=C(NCCCCN1CCN(c2noc3ccsc23)CC1)c1cccc(C(F)(F)F)c1 [compound 829673]
90.2	O=C(NCCCCN1CCN(c2noc3ccsc23)CC1)c1ccc(F)cc1 [compound 829674]
38.9	O=C(NCCCCN1CCN(c2noc3ccsc23)CC1)c1ccc(Cl)cc1 [compound 829675]
96.6	O=C(NCCCCN1CCN(c2noc3ccsc23)CC1)c1ccc(C(F)(F)F)cc1 [compound 829677]
275	O=C(NCCCCN1CCN(c2noc3ccsc23)CC1)c1cc(Cl)cc(Cl)c1 [compound 829678]
14.7	O=C(NCCCCN1CCN(c2noc3ccsc23)CC1)c1ccc(-c2ccccc2)cc1 [compound 829680]
17.7	O=C(NCCCCN1CCN(c2noc3ccsc23)CC1)c1cc2ccccc2s1 [compound 829681]
18.9	O=C(NCCCCN1CCN(c2noc3ccsc23)CC1)c1cc2ccccc2[nH]1 [compound 829682]
37.5	O=C(NCCCCN1CCN(c2noc3ccsc23)CC1)c1ccc2[nH]ccc2c1 [compound 829683]
149	CCCCc1ccc(C(=O)NCCCCN2CCN(c3noc4ccsc34)CC2)cc1 [compound 829685]
42.1	N#Cc1ccc(C(=O)NCCCCN2CCN(c3noc4ccsc34)CC2)cc1 [compound 829686]
50.3	O=C(NCCCCN1CCN(c2noc3ccsc23)CC1)c1cccs1 [compound 829687]
673	O=C(NCCCCN1CCN(c2noc3ccsc23)CC1)c1cnc2ccccc2n1 [compound 829688]
151	O=C(NCCCCN1CCN(c2noc3ccsc23)CC1)c1cc(C(F)(F)F)ccc1F [compound 829691]
63.8	Cc1csc2c(N3CCN(CCCCNC(=O)CCCc4ccccc4)CC3)noc12 [compound 830748]

same assay, conditions: the 23rd table; read-out: D3 Ki

Ki [nM]	Compound
12	CC[C@H]1CC[C@H](NC[C@@H]2C[C@H]2CN2CCN(c3ccccc3C)CC2)CC1 [compound 831876]
13.5	C[C@H]1CC[C@H](NC[C@@H]2C[C@H]2CN2CCN(c3csc4cc(C(F)(F)F)ccc34)CC2)CC1 [compound 832209]
72.8	CCC1CCC(NCC2CC2CN2CCN(c3cc(C)ccc3C)CC2)CC1 (centres unmarked) [compound 832265]
29.6	CC[C@H]1CC[C@H](NC[C@@H]2C[C@H]2CN2CCN(c3ccc(C)cc3C)CC2)CC1 [compound 832266]
33.6	C[C@H]1CC[C@H](NC[C@@H]2C[C@H]2CN2CCC(c3noc4c(C(F)(F)F)cccc34)CC2)CC1 [compound 832275]
30.3	CC(C)CCNC[C@@H]1C[C@H]1CN1CCN(c2csc3cc(C(F)(F)F)ccc23)CC1 [compound 832276]
57	COc1ccc(NC[C@@H]2C[C@H]2CN2CCN(c3csc4cc(C(F)(F)F)ccc34)CC2)cc1 [compound 832279]
19.2	CSCCCNC[C@@H]1C[C@H]1CN1CCN(c2csc3cc(C(F)(F)F)ccc23)CC1 [compound 832280]
5.59	FC(F)(F)c1ccc2c(N3CCN(C[C@@H]4C[C@H]4CNCCc4cccnc4)CC3)csc2c1 [compound 832281]
227	FC(F)(F)c1ccc2c(N3CCN(C[C@@H]4C[C@H]4CNCCc4ccccc4)CC3)csc2c1 [compound 832322]
151	CC[C@H]1CC[C@H](NC[C@@H]2C[C@H]2CN2CCN(c3c(Cl)sc4cc(C(F)(F)F)ccc34)CC2)CC1 [compound 832329]
36.5	FC(F)(F)c1ccc2c(N3CCN(C[C@@H]4C[C@H]4CNC4CCN(CC5CC5)CC4)CC3)csc2c1 [compound 832387]
71.9	FC(F)(F)c1ccc2c(N3CCN(C[C@@H]4C[C@H]4CNCCSc4ccc(Cl)cc4)CC3)csc2c1 [compound 832388]
124	CC[C@H]1CC[C@H](NCC2(CCN3CCC(c4noc5ccsc45)CC3)CC2)CC1 [compound 832401]
47.6	FC(F)(F)c1cccc2c(C3CCN(C[C@@H]4C[C@H]4CNCC45CC6CC(CC(C6)C4)C5)CC3)noc12 [compound 832783]
36.5	Cc1nc(Cl)c(Cl)n1CCCNC[C@@H]1C[C@H]1CN1CCN(c2csc3cc(C(F)(F)F)ccc23)CC1 [compound 832817]

same assay, conditions: the 24th table; read-out: D3 Ki

Ki [nM]	Compound
36.3	O=S(=O)(NCC1CC1CN1CCC(c2noc3ccsc23)CC1)c1ccc(F)cc1 (centres unmarked) [compound 831363]
113	CC(C)S(=O)(=O)NCC1CC1CN1CCC(c2noc3ccsc23)CC1 (centres unmarked) [compound 831366]
43.3	COc1ccc(S(=O)(=O)NCC2CC2CN2CCC(c3noc4ccsc34)CC2)cc1 (centres unmarked) [compound 831464]
28.1	COc1ccc(S(=O)(=O)NCC2CC2CN2CCN(c3csc4cc(C(F)(F)F)ccc34)CC2)cc1 (centres unmarked) [compound 831500]
53.9	CC(C)(C)c1ccc(S(=O)(=O)NCC2CC2CN2CCC(c3noc4ccsc34)CC2)cc1 (centres unmarked) [compound 831512]
65.5	O=S(=O)(NCC1CC1CN1CCC(c2noc3ccsc23)CC1)c1ccc(OC(F)(F)F)cc1 (centres unmarked) [compound 831513]
195	O=S(=O)(NCC1CC1CN1CCN(c2csc3cc(C(F)(F)F)ccc23)CC1)c1ccc(OC(F)(F)F)cc1 (centres unmarked) [compound 831592]
186	CCCCS(=O)(=O)NCC1CC1CN1CCN(c2csc3cc(C(F)(F)F)ccc23)CC1 (centres unmarked) [compound 831636]
277	O=S(=O)(CCc1cccc2ccccc12)NCC1CC1CN1CCN(c2csc3cc(C(F)(F)F)ccc23)CC1 (centres unmarked) [compound 831910]

same assay, conditions: the 25th table; read-out: D3 Ki

Ki [nM]	Compound
29.3	CCCCOC(=O)NCC1CC1CN1CCC(c2noc3ccsc23)CC1 (centres unmarked) [compound 831696]

same assay, conditions: the 26th table; read-out: D3 Ki

Ki [nM]	Compound
90	OC(CCN1CCC(c2noc3ccsc23)CC1)CN1CCN(c2ccc(F)cc2)CC1 (centres unmarked) [compound 831939]
356	OC(CCN1CCC(c2noc3ccsc23)CC1)CN1CCOCC1 (centres unmarked) [compound 831940]
161	OC(CCN1CCC(c2noc3ccsc23)CC1)CN1CCc2ccccc2C1 (centres unmarked) [compound 831941]
264	OC(CCN1CCC(c2noc3ccsc23)CC1)CN1CCN(c2ccccc2)CC1 (centres unmarked) [compound 831943]
38.5	OC(CCN1CCC(c2noc3ccsc23)CC1)CN1CCC(Cc2ccccc2)CC1 (centres unmarked) [compound 831944]
700	OC(CCN1CCC(c2noc3ccsc23)CC1)CNCCc1ccccc1 (centres unmarked) [compound 831945]
